Results from the supplement of paper PMC4862054.

Key:
Conditions in all cases: incubation time: 72 h
[1] = test system: HDQ-P1; assay: drug sensitivity score (DSS), CellTox Green (DSS (AUC-based score)); higher = stronger drug effect (viability inhibition or cytotoxicity); extreme values may be limits of the assay
Summary of the method: (§1)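 Using 20 µl of cell suspension per well, breast cancer cell lines were seeded into 384-well plates pre-loaded with compound at 5 concentrations in 10-fold steps across a compound-specific 10,000-fold range. Incubation lasted 72 h, after which CellTox Green fluorescence at 485/520 nm and then CellTiter-Glo luminescence, following 10 min at room temperature, were recorded. Each plate was normalised to 0.1 % DMSO and a positive kill control before the drug sensitivity score was derived from the area under the fitted dose-response curve.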

[2] = test system: HCC1599; assay: as above
Summary of the method: as §1

[3] = test system: CAL-120; assay: as above
Summary of the method: as §1

[4] = test system: CAL-51; assay: as above
Summary of the method: as §1

[5] = test system: MCF-10A; assay: as above
Summary of the method: as §1

[6] = test system: CAL-85-1; assay: as above
Summary of the method: as §1

[7] = test system: MDA-MB-231; assay: as above
Summary of the method: as §1

[8] = test system: BT-474; assay: as above
Summary of the method: as §1

[9] = test system: MDA-MB-453; assay: as above
Summary of the method: as §1

[10] = test system: HCC1143; assay: as above
Summary of the method: as §1

[11] = test system: DU-4475; assay: as above
Summary of the method: as §1

[12] = test system: MFM-223; assay: as above
Summary of the method: as §1

[13] = test system: BT-549; assay: as above
Summary of the method: as §1

[14] = test system: CAL-148; assay: as above
Summary of the method: as §1

[15] = test system: HCC1937; assay: as above
Summary of the method: as §1

[16] = test system: HCC1599; assay: normalised viability (% of control), CellTiter-Blue; higher = more viable cells (about 100 = DMSO control)
Summary of the method: (§2)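 Compound dissolved in 5 µl medium was pre-loaded into 384-well plates, and breast cancer cell lines in 20 µl suspension were seeded on top and incubated 72 h. After adding 2.5 µl CellTiter-Blue reagent for 2 h at 37 °C, fluorescence was read at 560/590 nm. Plates were normalised to vehicle (100) and a positive kill control (0), with Z'-factor quality control. Each value is normalised viability at a single listed concentration from the series.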

[17] = test system: MDA-MB-436; assay: as above
Summary of the method: as §2

[18] = test system: CAL-51; assay: as above
Summary of the method: as §2

[19] = test system: Hs578T; assay: as above
Summary of the method: as §2

[20] = test system: BT-474; assay: as above
Summary of the method: as §2

[21] = test system: HCC1143; assay: as above
Summary of the method: as §2

[22] = test system: MFM-223; assay: as above
Summary of the method: as §2

[23] = test system: BT-549; assay: as above
Summary of the method: as §2

[24] = test system: HCC1937; assay: as above
Summary of the method: as §2

[25] = test system: Hs578T; assay: drug sensitivity score (DSS), CellTox Green (DSS (AUC-based score)); higher = stronger drug effect (viability inhibition or cytotoxicity); extreme values may be limits of the assay
Summary of the method: as §1

Cn1c(=O)c(F)c(Nc2ccc(I)cc2F)c2c(=O)n(C[C@@H](O)CO)cnc21 [TAK-733]
Conditions | drug sensitivity score
[1] | 0
[2] | 0
[3] | 0.284
[4] | 0
[5] | 0
[6] | 5.06
[7] | 5.12
[8] | 0
[9] | 0
[10] | 0
[11] | 4.73
[12] | 0
[13] | 0
[14] | 0
[15] | 0

normalised viability [%]
Conditions | [16] | [17] | [18] | [19] | [20] | [21] | [22] | [23] | [24]
0.3 nM | – | – | 107 | – | – | – | – | – | –
1 nM | 94.8 | 112 | – | 108 | 123 | 94.1 | 90.4 | 92 | 121
3 nM | – | – | 88.7 | – | – | – | – | – | –
10 nM | – | – | 90.1 | – | – | – | – | – | –
100 nM | 74.6 | 84.1 | – | 88.3 | 121 | 68.6 | 79.8 | 81.8 | 104
1000 nM | 70.5 | 88.9 | – | 77.5 | 131 | 56.4 | 64.5 | 103 | 74

O=c1[nH]c(=O)n([C@H]2C[C@H](O)[C@@H](CO)O2)cc1F [Floxuridine]
Conditions | drug sensitivity score
[1] | 1.01
[2] | 0
[3] | 0
[4] | 5.94
[5] | 0
[6] | 4.11
[7] | 0
[8] | 0
[9] | 0
[10] | 0
[11] | 0
[13] | 0
[14] | 0
[15] | 0
[25] | 0

normalised viability [%]
Conditions | [16] | [17] | [18] | [19] | [20] | [21] | [22] | [23] | [24]
3 nM | – | – | 108 | – | – | – | – | – | –
10 nM | 86.9 | 88.9 | – | 127 | 108 | 97.5 | 97.1 | 96.5 | 78.3
30 nM | – | – | 64.4 | – | – | – | – | – | –
100 nM | – | – | 46.6 | – | – | – | – | – | –
1000 nM | 91.8 | 62.5 | – | 58.9 | 103 | 91.1 | 93.4 | 67.1 | 76
10000 nM | 81.9 | 44.2 | – | 38.9 | 94.8 | 61.6 | 55.1 | 44.8 | 42.1

c1ccc(C2CN3CCSC3=N2)cc1 (stereo unspecified) [Tetramisole]
normalised viability [%]
Conditions | [16] | [17] | [18] | [19] | [20] | [21] | [22] | [23] | [24]
3 nM | – | – | 85.4 | – | – | – | – | – | –
10 nM | 102 | 110 | – | 90.2 | 111 | 105 | 101 | 105 | 117
30 nM | – | – | 92.1 | – | – | – | – | – | –
100 nM | – | – | 89.6 | – | – | – | – | – | –
1000 nM | 91.2 | 111 | – | 95.5 | 137 | 118 | 96.4 | 85.6 | 105
10000 nM | 107 | 113 | – | 107 | 107 | 109 | 90.3 | 89.1 | 103
